These results are taken from patent publication US5021439A, “Cerebral function ameliorating agents related to Tan-950 A” (priority 1988, dated 1991).

The target of one assay is NMDA-type receptor. Description: Binding assay of NMDA-type receptor (3H-CPP) on rat forebrain crude synaptic membrane. To be noted: for IC50: 10 nM 3H-CPP, pH 7.1, 0° C., 15 min, read-out: Affinity to NMDA-type receptor (3H-CPP), IC50. The source says:
(§1) The receptors of the exitatory amino acid (especially, glutamate) are classified into NMDA type, Quisqualate type and Kainate type. 3H-CPP [3-(2-carboxypiperazin-4-yl)propyl-1-[…]] as the ligand (a radio active substance which has high affinity for the receptor) for the NMDA-type-receptor, ^3 H-AMPA (DL-α-amino-3-hydroxy-5-methylisoxazole-4-propionic acid) as the ligand for the quisqualate-type-receptor, and ^3 H-kainic acid as the ligand for the kainate-type-receptor were used respectively. A sample of the crude synaptic membrane prepared from the forebrain of rat was washed 4 times by Tris hydrochloric acid buffer (pH 7.1) and kept in a freezing condition at -20° C. until its use.
(§2) Samples of the frozen crude synaptic membrane were melted and, after floating on 50 mM Tris hydrochloric acid buffer (pH 7.1), incubated for 30 minutes at 37° C. After the incubation, the synaptic membrane was centrifuged (48,000×g) and washed 3 times with 50 mM Tris hydrochloric acid buffer and used in the test.
(§3) In the binding assay of the NMDA-type-receptor, samples of the synaptic membrane were incubated in the presence or absence of a test compound together with 10 nM ^3 H-CPP in 50 mM Tris hydrochloric acid buffer (pH 7.1, 0° C.) for 15 minutes. The sediment (pellet) containing synapse membrane which was recovered by centrifugation of the incubation solution was rinsed with 50 mM Tris hydrochloric acid buffer (pH 7.1) and dissolved in 0.5 ml of Protosol® (made by New England Nuclear Inc.). In the binding assay of Quisqualate-type-receptor and Kainate-type-receptor, samples of the synapse was incubated in the presence or absence of a test compound in 5 nM ^3 H-AMPA (Quisqualate-type-receptor) or 2 nM ^3 H-Kainic acid (Kainate-type-receptor) together with 50 mM Tris hydrochloric acid buffer (pH 7.1, 0° C.) for 90 minutes. The solution was filtered with Whatman GF/B filter (Whatman®, made by Whatman Inc.) under reduced pressure and the filter was washed 3 times with 50 mM Tris hydrochloric acid buffer. The radioactivity on the filter was measured by a conventional method. The specific binding amount was determined by subtracting the non-specific binding from the total binding, taking the binding in the presence of an excessive non-radioactive L-sodium glutamate (1 mM) as the amount of the non-specfic binding, i.e., the binding to anything other than the receptor. The 50% inhibiting concentration (IC50) of the compound to be tested was determined as the concentration which inhibits 50% of the specific receptor binding of ^3 H-CPP, ^3 H-AMPA or ^3 H-kainic acid.

The target of assay [1] is Quisqualate-type receptor. The experiment in a line: Binding assay of Quisqualate-type receptor (3H-AMPA) on rat forebrain crude synaptic membrane. Particulars: for IC50: 5 nM 3H-AMPA, pH 7.1, 0° C., 90 min, read-out: Affinity to Quisqulate-type receptor (3H-AMPA), IC50; for Affinity to the Quisqualate-type-receptor (in words): summary of Table 5.
Source text: as §1, §2
as §3, with “receptor.” for “receptor. The 50% inhibiting concentration (IC50) of the compound to be tested was determined as the concentration which inhibits 50% of the specific receptor binding of ^3 H-CPP, ^3 H-AMPA or ^3 H-kainic acid.”

Another assay concerns the target Kainate-type receptor. The experiment in a line: Binding assay of Kainate-type receptor (3H-kainic acid) on rat forebrain crude synaptic membrane. To be noted: for Affinity to Kainate-type receptor (3H-KA), IC50: 2 nM 3H-Kainic acid, pH 7.1, 0° C., 90 min.
Source text: as §1, §2
as §3, with “receptor.” for “receptor. The 50% inhibiting concentration (IC50) of the compound to be tested was determined as the concentration which inhibits 50% of the specific receptor binding of ^3 H-CPP, ^3 H-AMPA or ^3 H-kainic acid.”

Assay [2] relates to glutamate receptor (NMDA type, Quisqualate type and Kainate type). Description: Affinity for the glutamate receptors of the brain, 3 sub-types taken together. The assay is classed as binding, rat. To be noted: summary of Table 5.
Source text: as §1, §2, §3

Take `CCC[C@H](NC(=O)[C@@H](N)Cc1c[nH]oc1=O)C(=O)O` [Compound 51]: the IC50 (usually the concentration needed to halve the response being measured) worked out at 10 µM on NMDA-type receptor and 20 µM in assay [1]. The “Affinity to Kainate-type receptor (3H-KA), IC50” value (shortened to “Affinity … IC50”) at Kainate-type receptor worked out at 51 µM. Moreover, in assay [2], the “Affinity to the 3 sub-type receptors (in words)” value was “high affinities to the 3 sub-type receptors”.
In the same order, the values of `N[C@@H](Cc1c[nH]oc1=O)C(=O)NC[C@H](NC(=O)OCc1ccccc1)C(=O)O` [Compound 63] are 47 µM, 21 µM, 22 µM and “high affinities to the 3 sub-type receptors”.
With `N[C@@H](Cc1c[nH]oc1=O)C(=O)NCC(=O)O` [Compound 66], the IC50 is 21 µM at NMDA-type receptor and 48 µM in assay [1]. The “Affinity … IC50” value at Kainate-type receptor stood at 19 µM. Moreover, in assay [2], the “Affinity to the 3 sub-type receptors (in words)” value is given as “high affinities to the 3 sub-type receptors”.
As for `N[C@@H](Cc1c[nH]oc1=O)C(=O)NCCC(=O)O` [Compound 69], on NMDA-type receptor, the IC50 is 11 µM. In addition, in assay [1], the IC50 came to 6.4 µM and the “Affinity to the Quisqualate-type-receptor (in words)” value is given as “strong affinity”. For the same compound, the “Affinity … IC50” value at Kainate-type receptor was 5.2 µM. In the assay on Kainate-type receptor (summary of Table 5), the “Affinity to the Kainate-type-receptor (in words)” value is “strong affinity”. In addition, the “Affinity to the 3 sub-type receptors (in words)” value in assay [2] is “high affinities to the 3 sub-type receptors”.
As for `N[C@H](C(=O)O)c1c[nH]oc1=O` [Compound 104], the IC50 on NMDA-type receptor was 47 µM; in assay [1], above 100 µM. Further, the “Affinity … IC50” value at Kainate-type receptor is above 100 µM. The “Affinity to the 3 sub-type receptors (in words)” value in assay [2] was “differences in their affinities”.
Take `N[C@@H](Cc1c[nH]oc1=O)C(=O)NCCCC(=O)O` [Compound 107]: the IC50 on NMDA-type receptor amounted to 6.5 µM; in assay [1] it was 3 µM. The “Affinity to the NMDA-type-receptor (in words)” value in the assay on NMDA-type receptor (summary of Table 5) is “high affinity”. Besides, the “Affinity to the Quisqualate-type-receptor (in words)” value in assay [1] was “strong affinity”. Moreover, on Kainate-type receptor, the “Affinity … IC50” value is 12 µM. Moreover, the “Affinity to the 3 sub-type receptors (in words)” value in assay [2] is on record as “high affinities to the 3 sub-type receptors”.
In the case of `N[C@@H](Cc1c[nH]oc1=O)C(=O)NCCCCC(=O)O` [Compound 110], on NMDA-type receptor, the IC50 came out at 16 µM. Further, in assay [1], the IC50 stood at 5.5 µM and the “Affinity to the Quisqualate-type-receptor (in words)” value is reported as “strong affinity”. For the same compound, the “Affinity … IC50” value at Kainate-type receptor was 31 µM. For the same compound, the “Affinity to the 3 sub-type receptors (in words)” value in assay [2] was “high affinities to the 3 sub-type receptors”.
Turning to `N[C@@H](CNC(=O)[C@@H](N)Cc1c[nH]oc1=O)C(=O)O` [Compound 117], the IC50 on NMDA-type receptor worked out at 16 µM; in assay [1] it was 13 µM. For the same compound, at Kainate-type receptor, the “Affinity … IC50” value worked out at 29 µM. Moreover, the “Affinity to the 3 sub-type receptors (in words)” value in assay [2] is “high affinities to the 3 sub-type receptors”.
Turning to `N[C@H](CNC(=O)[C@@H](N)Cc1c[nH]oc1=O)C(=O)O` [Compound 120], the figures for the IC50 (on NMDA-type receptor; in assay [1]) were 11 µM and 21 µM, respectively. Besides, at Kainate-type receptor, the “Affinity … IC50” value turned out to be 24 µM. Further, the “Affinity to the 3 sub-type receptors (in words)” value in assay [2] was “high affinities to the 3 sub-type receptors”.
Turning to `N[C@@H](Cc1c[nH]oc1=O)C(=O)NCc1ccc(C(=O)O)cc1` [Compound 123], the figures for the IC50 (on NMDA-type receptor; in assay [1]) were 27 µM and 59 µM, respectively. For the same compound, the “Affinity … IC50” value at Kainate-type receptor is 37 µM. For the same compound, in assay [2], the “Affinity to the 3 sub-type receptors (in words)” value is listed as “high affinities to the 3 sub-type receptors”.
For `N[C@@H](Cc1c[nH]oc1=O)C(=O)N1CCC(C(=O)O)CC1` [Compound 126], in that order: 10 µM, 17 µM, 18 µM and “high affinities to the 3 sub-type receptors”.
With `N[C@@H](Cc1c[nH]oc1=O)C(=O)N1CCCC(C(=O)O)C1` (some centres unmarked) [Compound 129], the IC50 on NMDA-type receptor came out at 10 µM; in assay [1], 13 µM. For the same compound, the “Affinity … IC50” value at Kainate-type receptor came out at 36 µM. Further, the “Affinity to the 3 sub-type receptors (in words)” value in assay [2] was “high affinities to the 3 sub-type receptors”.
